Test results reported in US8192962B2, “Processes for detecting toxic substances” (Daikin Industries, Ltd., priority 2001, dated 2012).

Tested on: Transport facilitation protein genes
Test: DNA chip mRNA expression in yeast, transport facilitation protein genes (Table 5)
Type: cell-based, Saccharomyces cerevisiae S288C
Procedure, shortened: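 Values are treated/untreated fluorescence ratios from a whole-genome yeast DNA chip hybridized over 12 hours at 65° C with Cy3- or Cy5-labelled cDNA from poly(A) mRNA. Log-phase S288C yeast in YPD at 25° C had received a single toxic chemical for two hours, dosed to slow growth without killing.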

## Cl[C@H]1[C@H](Cl)[C@@H](Cl)[C@@H](Cl)[C@H](Cl)[C@H]1Cl [(7), γ-hexachlorocyclohexane]
Yeast gene YGR260W
  The level of expressed mRNA in the presence of chemical substance/The level of expressed mRNA in the absence of chemical substance: 0.9
Yeast gene YGR281W
  The level of expressed mRNA in the presence of chemical substance/The level of expressed mRNA in the absence of chemical substance: 0.9
Yeast gene YHL035C
  The level of expressed mRNA in the presence of chemical substance/The level of expressed mRNA in the absence of chemical substance: 1.7
Yeast gene YHL040C
  The level of expressed mRNA in the presence of chemical substance/The level of expressed mRNA in the absence of chemical substance: 4.0
Yeast gene YHL047C
  The level of expressed mRNA in the presence of chemical substance/The level of expressed mRNA in the absence of chemical substance: 16.8
Yeast gene YHR026W
  The level of expressed mRNA in the presence of chemical substance/The level of expressed mRNA in the absence of chemical substance: 0.9
Yeast gene YHR092C
  The level of expressed mRNA in the presence of chemical substance/The level of expressed mRNA in the absence of chemical substance: 0.5
Yeast gene YHR094C
  The level of expressed mRNA in the presence of chemical substance/The level of expressed mRNA in the absence of chemical substance: 0.8
Yeast gene YHR175W
  The level of expressed mRNA in the presence of chemical substance/The level of expressed mRNA in the absence of chemical substance: 1.6
Yeast gene YIL006W
  The level of expressed mRNA in the presence of chemical substance/The level of expressed mRNA in the absence of chemical substance: 0.8
Yeast gene YIL022W
  The level of expressed mRNA in the presence of chemical substance/The level of expressed mRNA in the absence of chemical substance: 0.7
Yeast gene YIL056W
  The level of expressed mRNA in the presence of chemical substance/The level of expressed mRNA in the absence of chemical substance: 0.6
Yeast gene YIL088C
  The level of expressed mRNA in the presence of chemical substance/The level of expressed mRNA in the absence of chemical substance: 1.7
Yeast gene YJL034W
  The level of expressed mRNA in the presence of chemical substance/The level of expressed mRNA in the absence of chemical substance: 1.3
Yeast gene YJL212C
  The level of expressed mRNA in the presence of chemical substance/The level of expressed mRNA in the absence of chemical substance: 0.7
Yeast gene YJL219W
  The level of expressed mRNA in the presence of chemical substance/The level of expressed mRNA in the absence of chemical substance: 0.9
Yeast gene YJR077C
  The level of expressed mRNA in the presence of chemical substance/The level of expressed mRNA in the absence of chemical substance: 0.7
Yeast gene YJR106W
  The level of expressed mRNA in the presence of chemical substance/The level of expressed mRNA in the absence of chemical substance: 1.0
Yeast gene YJR121W
  The level of expressed mRNA in the presence of chemical substance/The level of expressed mRNA in the absence of chemical substance: 1.0
Yeast gene YKL016C
  The level of expressed mRNA in the presence of chemical substance/The level of expressed mRNA in the absence of chemical substance: 1.5
Yeast gene YKL146W
  The level of expressed mRNA in the presence of chemical substance/The level of expressed mRNA in the absence of chemical substance: 0.9
Yeast gene YKR039W
  The level of expressed mRNA in the presence of chemical substance/The level of expressed mRNA in the absence of chemical substance: 1.0
Yeast gene YKR067W
  The level of expressed mRNA in the presence of chemical substance/The level of expressed mRNA in the absence of chemical substance: 2.0
Yeast gene YLL028W
  The level of expressed mRNA in the presence of chemical substance/The level of expressed mRNA in the absence of chemical substance: 1.0
Yeast gene YLR081W
  The level of expressed mRNA in the presence of chemical substance/The level of expressed mRNA in the absence of chemical substance: 0.7
Yeast gene YLR295C
  The level of expressed mRNA in the presence of chemical substance/The level of expressed mRNA in the absence of chemical substance: 1.1
Yeast gene YLR348C
  The level of expressed mRNA in the presence of chemical substance/The level of expressed mRNA in the absence of chemical substance: 0.9
Yeast gene YLR378C
  The level of expressed mRNA in the presence of chemical substance/The level of expressed mRNA in the absence of chemical substance: 0.7
Yeast gene YMR011W
  The level of expressed mRNA in the presence of chemical substance/The level of expressed mRNA in the absence of chemical substance: 0.8
Yeast gene YMR162C
  The level of expressed mRNA in the presence of chemical substance/The level of expressed mRNA in the absence of chemical substance: 0.8
Yeast gene YMR203W
  The level of expressed mRNA in the presence of chemical substance/The level of expressed mRNA in the absence of chemical substance: 0.8
Yeast gene YNL055C
  The level of expressed mRNA in the presence of chemical substance/The level of expressed mRNA in the absence of chemical substance: 1.2
Yeast gene YNL259C
  The level of expressed mRNA in the presence of chemical substance/The level of expressed mRNA in the absence of chemical substance: 3.8
Yeast gene YNR072W
  The level of expressed mRNA in the presence of chemical substance/The level of expressed mRNA in the absence of chemical substance: 1.5
Yeast gene YOL119C
  The level of expressed mRNA in the presence of chemical substance/The level of expressed mRNA in the absence of chemical substance: 2.2
Yeast gene YOL156W
  The level of expressed mRNA in the presence of chemical substance/The level of expressed mRNA in the absence of chemical substance: 1.0
Yeast gene YOL163W
  The level of expressed mRNA in the presence of chemical substance/The level of expressed mRNA in the absence of chemical substance: 0.9
Yeast gene YOR035C
  The level of expressed mRNA in the presence of chemical substance/The level of expressed mRNA in the absence of chemical substance: 1.3
Yeast gene YOR130C
  The level of expressed mRNA in the presence of chemical substance/The level of expressed mRNA in the absence of chemical substance: 1.3
Yeast gene YOR153W
  The level of expressed mRNA in the presence of chemical substance/The level of expressed mRNA in the absence of chemical substance: 2.6
Yeast gene YOR270C
  The level of expressed mRNA in the presence of chemical substance/The level of expressed mRNA in the absence of chemical substance: 1.0
Yeast gene YOR273C
  The level of expressed mRNA in the presence of chemical substance/The level of expressed mRNA in the absence of chemical substance: 0.4
Yeast gene YOR316C
  The level of expressed mRNA in the presence of chemical substance/The level of expressed mRNA in the absence of chemical substance: 1.4
Yeast gene YOR332W
  The level of expressed mRNA in the presence of chemical substance/The level of expressed mRNA in the absence of chemical substance: 0.9
Yeast gene YOR348C
  The level of expressed mRNA in the presence of chemical substance/The level of expressed mRNA in the absence of chemical substance: 0.8
Yeast gene YPL036W
  The level of expressed mRNA in the presence of chemical substance/The level of expressed mRNA in the absence of chemical substance: 0.3
Yeast gene YPL134C
  The level of expressed mRNA in the presence of chemical substance/The level of expressed mRNA in the absence of chemical substance: 1.2
Yeast gene YPL271W
  The level of expressed mRNA in the presence of chemical substance/The level of expressed mRNA in the absence of chemical substance: 1.2
Yeast gene YPR192W
  The level of expressed mRNA in the presence of chemical substance/The level of expressed mRNA in the absence of chemical substance: 0.9
Yeast gene YPR194C
  The level of expressed mRNA in the presence of chemical substance/The level of expressed mRNA in the absence of chemical substance: 0.7
